According to patent US20250161419A1, “SERPIN PEPTIDES AND METHODS OF USING THE SAME” (SERPIN PHARMA, LLC, priority 2022, published 2025):

How the values were obtained:
CCL24 = experiment: OVA-challenge allergic inflammation model, CCL24 in BALF by ELISA; type: in vivo, mouse; conditions: OVA-challenge in sensitized mice, treated during challenge phase, vs vehicle
Procedure: (§1) Mice were subjected to the OVA-challenge allergic inflammation model and treated with vehicle or SP16 during the challenge phase. The bronchoalveolar lavage fluid (BALF) was analyzed for cytokines via ELISA.
(§2) The ova-induced model of allergic inflammation is a widely used model of eosinophilic driven allergic diseases.

IL-4 = experiment: MC903 AD model, IL-4 in ear lysate by ELISA; type: in vivo, mouse; conditions: topical, vs MC903
Procedure: (§3) Mice were treated with SP16 in 70% EtOH (MC903+SP16) or drug vehicle (MC903). Normal control (NC) mice were treated with EtOH only. Ears were measured for PAR2 protein expression through western blot analysis (quantitative analysis after normalization to beta-actin shown) (n=3-5). TSLP was measured in both the ears and serum by ELISA (N=3-5). Scratching was assessed over a 3 minute period after a 5-minute acclimatization period and the number of scratches are shown (n=3). IL-4 was measured in ear lysate via ELISA (N=3-5).

PAR2 = experiment: MC903 AD model, PAR2 protein expression in ears by western blot; type: in vivo, mouse; conditions: topical, vs MC903
Procedure: as §3

CCL26 = CCL26 release by esophageal epithelial cells (EPC2); type: cell-based, human
Procedure: (§4) FIG. 12A: Poly I:C-induced TSLP production by SPINK7 knockout EPC2 cells (Human esophageal epithelial cells). SPINK7 KO cells and control cells were plated in high calcium and high density, for 48 hours before being treated with SP16 or 7G and Poly I:C (5 μg/ml, or untreated) for 8 hours. TSLP production in the supernatant was measured by ELISA. FIG. 12B: primary esophageal epithelial cells (EPC2) were treated with SP16 and then stimulated with IL-13, a TH2 response mediated cytokine, to induce CCL26.
(§5) SP16 reduces several key cytokines involved in allergic responses. Upon knockout of SPINK7, esophageal epithelial cells release exacerbated levels of TSLP. TSLP is a key mediator of immune cell responses upon activation to an insult such as allergens.

NFκB = NFκB reporter assay stimulated with LPS (THP1-XBlue-MD2-GD14 reporter cells, SEAP read-out); type: cell-based; conditions: peptide 50 μg/ml before LPS 5 ng/ml, overnight
Procedure: The reporter cells (THP1-XBlue-MD2-GD14 cells) were treated with each peptide (50 μg/ml) before being insulted with LIPS (5 ng/ml) and incubated overnight. The NFκB inducible Secreted Embryonic Alkaline Phosphatase (SEAP) was measured in the supernatant and read for absorbance.

TSLP = experiment: Poly I:C-induced TSLP production by SPINK7 knockout EPC2 cells (ELISA); type: cell-based, human; conditions: Poly I:C 5 μg/ml, 8 hours
Procedure: as §4, §5

IL-2 = experiment: OVA-challenge allergic inflammation model, IL-2 in BALF by ELISA; type: in vivo, mouse; conditions: OVA-challenge in sensitized mice, treated during challenge phase, vs vehicle
Procedure: as §1, §2

[1] = tested on: eosinophil infiltration into the lungs of mice; experiment: OVA-induced allergic inflammation model, eosinophils in BALF by flow cytometry; type: in vivo, mouse; conditions: p=0.04
Procedure: FIG. 15A: mice were subjected to the OVA-challenge allergic inflammation model and treated with vehicle, SP16, or A1AT during the challenge phase. The BALF was collected and analyzed for the percent of eosinophils and compared to saline (non-challenged) mice, vehicle OVA induced mice, or SP16 treated OVA induced mice.
The impact of SP16 treatment on eosinophilic infiltration in mice was assessed using the OVA-induced allergic inflammation model. The number of eosinophils in the bronchoalveolar lavage fluid was quantified by flow cytometry.

[2] = tested on: MC903 induced atopic dermatitis and pruritis in mice; experiment: MC903 (calcipotriol) induced AD-like inflammatory skin model, topical treatment: dermatitis score, ear volume, scratching; type: in vivo, mouse
Procedure: SP16 (in 70% ethanol) was applied topically to the ears on the days of the MC903 applications (MC903+SP16). Drug vehicle (70% EtOH) was applied to control animals (MC903) and normal control animals (NC) received EtOH in place of MC903. In-life parameters: Dermatitis score (FIG. 16A) and ear volume (FIG. 16B) measured on days 0, 3, 7, 9, 11 and 14. […] Clinical Dermatitis Score (score 0-4 for each parameter)-erythema, scale/dryness, edema, excoriation/erosion (total score 0-16).
as §3

IL-1a = experiment: OVA-challenge allergic inflammation model, IL-1a in BALF by ELISA; type: in vivo, mouse; conditions: OVA-challenge in sensitized mice, treated during challenge phase, vs vehicle
Procedure: as §1, §2

In the case of “VKFNKPFVFLMIEQNTK (SP16 peptide core sequence including the LRP1 binding site; listed as Homo sapiens)”, the “CCL24 in BALF” value (CCL24) was “significantly reduces CCL24”, the “IL-4 release in the skin tissue (ear lysate)” value (IL-4) was “significantly reduced” and the “PAR2 protein expression in ears” value (PAR2) was “PAR2 and TSLP inhibition”. For the same sequence, the “CCL26 release (text: Poly 1:C mediated)” value (CCL26; primary SPINK7 knockout esophageal cells) was “effective in significantly reducing Poly 1:C mediated TSLP and CCL26 release”, the “CCL26 release induced by IL-13” value (CCL26; primary esophageal epithelial cells (EPC2), SP16 then IL-13) was “significantly reduced CCL26 release dose dependently” and the “NFκB activity (NFκB inducible SEAP in supernatant)” value (NFκB) was “capable of reducing NFκB activity”. The “Poly I:C mediated TSLP release” value (TSLP) was “effective in significantly reducing Poly 1:C mediated TSLP and CCL26 release”, the “IL-2 in BALF” value (IL-2) was “significantly reduces IL-2” and the “eosinophil infiltration into the lungs (eosinophils in BALF)” value [1] was “reduces eosinophil infiltration into the lungs”. For the same sequence, the “disease (dermatitis score, ear volume)” value ([2]; topical solution (1%) in 70% ethanol, 14-day period, vs vehicle-treated mice) was “significant improvement in disease vs. vehicle-treated mice”, the “pruritis (number of scratches over 3 minutes)” value ([2]; topical, vs vehicle (MC903) treated mice) was “significantly reduces pruritis” and the “IL-1a in BALF” value (IL-1a) was “significantly reduces IL-1a”.
